Broadly, the logD is lipophilicity at a set pH, counting ionised and neutral species.

This data set can be described thus: method code SF-HPLC, from DOI: 10.1016/s0928-0987(01)00163-4, PMID: 11500258. As to conditions: pH 7.4.
Regarding `CC(C(=O)OCCOCCOCCOCCOCCO)c1cccc(C(=O)c2ccccc2)c1` (stereo not drawn), the log distribution coefficient (logD) was 3.9.

Compound `COc1ccc2cc(C(C)C(=O)OCCOCCOCCOCCOCCOCCO)ccc2c1` (stereo not drawn) came in with a pH-dependent lipophilicity (logD) of 2.9.

For the compound `COc1ccc2cc(C(C)C(=O)OCCOCCOCCOCCOCCO)ccc2c1` (stereo not drawn), the logD was 3.2.

For the compound `CC(C(=O)OCCOCCOCCOCCO)c1cccc(C(=O)c2ccccc2)c1` (stereo not drawn), the log distribution coefficient (logD) came to 3.6.

Consider `CC(C(=O)OCCOCCOCCO)c1cccc(C(=O)c2ccccc2)c1` (stereo not drawn), for which the pH-dependent lipophilicity (logD) stood at 3.4.

As for `O=C(Cc1ccccc1Nc1c(Cl)cccc1Cl)OCCOCCOCCOCCOCCOCCO`, the logD worked out at 2.6.

`CC(C(=O)OCCOCCOCCOCCOCCOCCO)c1cccc(C(=O)c2ccccc2)c1` (stereo not drawn): the logD is 3.5.

As for `CC(C(=O)OCCOCCO)c1cccc(C(=O)c2ccccc2)c1` (stereo not drawn), the logD came to 3.6.

Compound `COc1ccc2cc(C(C)C(=O)OCCOCCOCCOCCO)ccc2c1` (stereo not drawn) returned a logD of 3.5.

On to `COc1ccc2cc(C(C)C(=O)OCCOCCOCCO)ccc2c1` (stereo not drawn), for which the pH-dependent lipophilicity (logD) turned out to be 3.7.

Compound `O=C(Cc1ccccc1Nc1c(Cl)cccc1Cl)OCCOCCOCCO` displayed a logD of 3.9.

Compound `O=C(Cc1ccccc1Nc1c(Cl)cccc1Cl)OCCOCCO` yielded a logD of 4.1.

`O=C(Cc1ccccc1Nc1c(Cl)cccc1Cl)OCCOCCOCCOCCO` returned a pH-dependent lipophilicity (logD) of 3.5.
